# Measurements: the NIST ThermoML archive (doi:10.1021/je100033s)
# ± gives the expanded uncertainty stated by the source.
# How the values were obtained:
# [1] = Liquid; for mass density: 101.33 kPa, Pycnometric method; for Normal boiling temperature: Ebulliometric method (Recirculating still)
# [2] = refractive index (Na D-line) (dimensionless); conditions: 101.33 kPa, Liquid, Standard Abbe refractometry
mass density ([1]; 293.1 K) [kg/m3],Normal boiling temperature [1] [°C],refractive index ([2]; 293.1 K),mass density ([1]; 298.1 K) [kg/m3],refractive index ([2]; 298.1 K),Compound
783.1 ± 0.7,81.50 ± 0.2,1.3449 ± 0.0007,,,CC#N [acetonitrile]
,188.91 ± 0.2,,1096.1 ± 1,1.4775 ± 0.0007,C[S+](C)[O-] [dimethyl sulfoxide]
804 ± 0.7,97.09 ± 0.2,1.386 ± 0.0007,,,CCCO [propan-1-ol]
